# Key:
# [1] = biological target: Gamma-aminobutyric acid receptor subunit alpha-1 (Rattus norvegicus, UniProt P62813)
# [2] = biological target: T1, Alpha-1A adrenergic receptor (Homo sapiens, UniProt P35348)
# T1 sequence (P35348 whole entry): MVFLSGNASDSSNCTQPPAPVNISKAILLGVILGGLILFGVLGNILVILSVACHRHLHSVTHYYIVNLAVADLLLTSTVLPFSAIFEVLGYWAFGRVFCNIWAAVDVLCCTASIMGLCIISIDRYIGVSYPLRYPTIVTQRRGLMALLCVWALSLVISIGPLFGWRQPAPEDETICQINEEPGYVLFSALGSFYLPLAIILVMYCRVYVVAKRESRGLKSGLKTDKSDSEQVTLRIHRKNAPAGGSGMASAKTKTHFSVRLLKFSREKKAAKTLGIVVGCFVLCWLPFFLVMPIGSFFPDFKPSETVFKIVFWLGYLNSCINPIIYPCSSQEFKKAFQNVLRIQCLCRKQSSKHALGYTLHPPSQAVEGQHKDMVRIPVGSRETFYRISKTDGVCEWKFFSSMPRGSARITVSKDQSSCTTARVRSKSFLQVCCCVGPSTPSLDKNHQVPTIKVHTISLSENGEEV
# Estrogen receptor [3] = biological target: T2, Estrogen receptor (Homo sapiens, UniProt P03372)
# T2 sequence (P03372 whole entry): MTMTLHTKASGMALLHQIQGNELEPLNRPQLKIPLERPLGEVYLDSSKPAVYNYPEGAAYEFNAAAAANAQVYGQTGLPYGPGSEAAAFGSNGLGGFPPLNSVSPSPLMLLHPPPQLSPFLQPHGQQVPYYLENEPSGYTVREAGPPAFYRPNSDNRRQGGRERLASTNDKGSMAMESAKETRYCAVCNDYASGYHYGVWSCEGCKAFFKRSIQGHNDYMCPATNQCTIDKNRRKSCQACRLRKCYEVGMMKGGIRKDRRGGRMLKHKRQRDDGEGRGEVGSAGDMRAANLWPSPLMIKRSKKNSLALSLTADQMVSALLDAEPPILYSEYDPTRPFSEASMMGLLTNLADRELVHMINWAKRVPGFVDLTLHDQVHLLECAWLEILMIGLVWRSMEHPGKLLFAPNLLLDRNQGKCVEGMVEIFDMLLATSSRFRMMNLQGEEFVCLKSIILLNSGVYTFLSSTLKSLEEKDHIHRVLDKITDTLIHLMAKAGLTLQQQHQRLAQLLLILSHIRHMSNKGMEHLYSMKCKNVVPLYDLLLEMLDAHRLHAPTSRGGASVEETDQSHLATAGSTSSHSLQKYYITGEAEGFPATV
# Progesterone receptor = biological target: T3, Progesterone receptor (Homo sapiens, UniProt P06401)
# T3 sequence (P06401 whole entry): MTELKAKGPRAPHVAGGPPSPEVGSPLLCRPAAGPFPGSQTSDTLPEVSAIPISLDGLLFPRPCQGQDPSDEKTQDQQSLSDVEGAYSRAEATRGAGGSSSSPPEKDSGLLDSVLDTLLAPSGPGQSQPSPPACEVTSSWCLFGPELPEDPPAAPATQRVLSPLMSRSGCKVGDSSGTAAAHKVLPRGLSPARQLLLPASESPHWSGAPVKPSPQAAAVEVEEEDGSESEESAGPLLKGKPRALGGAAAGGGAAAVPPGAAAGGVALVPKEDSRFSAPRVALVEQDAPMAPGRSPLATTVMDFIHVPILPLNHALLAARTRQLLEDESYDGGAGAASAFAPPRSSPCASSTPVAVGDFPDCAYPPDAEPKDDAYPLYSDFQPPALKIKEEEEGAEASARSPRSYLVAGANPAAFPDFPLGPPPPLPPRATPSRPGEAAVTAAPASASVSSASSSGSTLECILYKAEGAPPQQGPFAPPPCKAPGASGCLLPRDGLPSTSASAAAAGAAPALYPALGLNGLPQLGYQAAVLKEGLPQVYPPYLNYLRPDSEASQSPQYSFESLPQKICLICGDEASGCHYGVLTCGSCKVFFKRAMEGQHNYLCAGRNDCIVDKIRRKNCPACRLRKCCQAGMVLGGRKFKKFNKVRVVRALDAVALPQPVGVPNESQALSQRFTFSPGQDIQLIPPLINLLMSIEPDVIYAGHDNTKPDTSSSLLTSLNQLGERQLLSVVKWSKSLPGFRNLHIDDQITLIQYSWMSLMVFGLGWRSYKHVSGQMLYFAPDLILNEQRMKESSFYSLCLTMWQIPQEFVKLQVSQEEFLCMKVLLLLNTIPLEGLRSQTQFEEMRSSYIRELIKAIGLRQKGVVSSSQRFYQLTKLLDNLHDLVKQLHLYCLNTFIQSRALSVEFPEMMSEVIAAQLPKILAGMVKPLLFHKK
# Substance-P receptor = Substance-P receptor (Homo sapiens, UniProt P25103)
# [4] = biological target: Gamma-aminobutyric acid receptor subunit alpha-1/alpha-2/beta-2/gamma-2 (Homo sapiens, UniProt P14867+P18507+P47869+P47870); assay type: functional, cell-based
# Estrogen receptor [5] = biological target: T2, Estrogen receptor; assay type: functional
# Estrogen receptor [6] = biological target: T2, Estrogen receptor; assay type: functional; remark: listed apart in the source
# Further: assay procedure not described here.
# Chain of Gamma-aminobutyric acid receptor subunit alpha-1 (P62813 whole entry): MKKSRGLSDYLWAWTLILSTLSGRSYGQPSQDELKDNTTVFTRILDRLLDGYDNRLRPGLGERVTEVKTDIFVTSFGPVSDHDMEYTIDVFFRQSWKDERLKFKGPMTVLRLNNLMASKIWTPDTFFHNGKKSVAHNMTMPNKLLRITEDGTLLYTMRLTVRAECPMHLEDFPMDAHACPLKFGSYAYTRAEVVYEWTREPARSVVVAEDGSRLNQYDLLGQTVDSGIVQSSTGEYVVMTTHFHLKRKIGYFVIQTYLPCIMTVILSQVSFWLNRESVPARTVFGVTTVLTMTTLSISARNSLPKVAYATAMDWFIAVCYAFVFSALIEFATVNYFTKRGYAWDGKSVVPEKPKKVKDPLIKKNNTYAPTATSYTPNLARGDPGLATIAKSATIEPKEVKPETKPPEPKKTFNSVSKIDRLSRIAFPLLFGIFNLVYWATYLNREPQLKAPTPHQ
# Chain of Gamma-aminobutyric acid receptor subunit alpha-1/alpha-2/beta-2/gamma-2 (P14867 whole entry): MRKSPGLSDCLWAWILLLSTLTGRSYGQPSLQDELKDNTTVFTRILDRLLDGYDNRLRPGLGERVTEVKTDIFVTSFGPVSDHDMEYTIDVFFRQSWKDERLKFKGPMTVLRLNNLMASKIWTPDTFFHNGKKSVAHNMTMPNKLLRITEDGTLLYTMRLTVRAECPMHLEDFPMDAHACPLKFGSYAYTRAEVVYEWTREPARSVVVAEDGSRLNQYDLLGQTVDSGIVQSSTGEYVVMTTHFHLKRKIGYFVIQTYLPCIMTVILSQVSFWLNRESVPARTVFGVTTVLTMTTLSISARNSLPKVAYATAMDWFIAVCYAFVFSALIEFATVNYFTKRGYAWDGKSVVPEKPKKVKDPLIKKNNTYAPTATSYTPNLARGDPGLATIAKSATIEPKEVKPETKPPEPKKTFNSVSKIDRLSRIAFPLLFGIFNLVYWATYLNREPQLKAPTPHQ
# Chain of Gamma-aminobutyric acid receptor subunit alpha-1/alpha-2/beta-2/gamma-2 (P47870 whole entry): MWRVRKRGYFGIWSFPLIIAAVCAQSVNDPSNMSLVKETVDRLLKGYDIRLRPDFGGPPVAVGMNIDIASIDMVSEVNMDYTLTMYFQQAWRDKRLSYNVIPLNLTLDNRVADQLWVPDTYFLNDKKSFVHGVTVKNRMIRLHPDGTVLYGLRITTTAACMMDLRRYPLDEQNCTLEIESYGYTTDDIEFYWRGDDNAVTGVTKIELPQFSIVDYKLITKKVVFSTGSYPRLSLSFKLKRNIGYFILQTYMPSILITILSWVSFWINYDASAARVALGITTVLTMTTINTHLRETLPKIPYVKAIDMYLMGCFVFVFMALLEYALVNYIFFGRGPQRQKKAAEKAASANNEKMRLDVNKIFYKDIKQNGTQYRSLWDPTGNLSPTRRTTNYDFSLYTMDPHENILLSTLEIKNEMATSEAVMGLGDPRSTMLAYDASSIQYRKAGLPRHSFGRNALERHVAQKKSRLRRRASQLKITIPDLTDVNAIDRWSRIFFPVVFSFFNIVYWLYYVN
# Chain of Gamma-aminobutyric acid receptor subunit alpha-1/alpha-2/beta-2/gamma-2 (P18507 whole entry): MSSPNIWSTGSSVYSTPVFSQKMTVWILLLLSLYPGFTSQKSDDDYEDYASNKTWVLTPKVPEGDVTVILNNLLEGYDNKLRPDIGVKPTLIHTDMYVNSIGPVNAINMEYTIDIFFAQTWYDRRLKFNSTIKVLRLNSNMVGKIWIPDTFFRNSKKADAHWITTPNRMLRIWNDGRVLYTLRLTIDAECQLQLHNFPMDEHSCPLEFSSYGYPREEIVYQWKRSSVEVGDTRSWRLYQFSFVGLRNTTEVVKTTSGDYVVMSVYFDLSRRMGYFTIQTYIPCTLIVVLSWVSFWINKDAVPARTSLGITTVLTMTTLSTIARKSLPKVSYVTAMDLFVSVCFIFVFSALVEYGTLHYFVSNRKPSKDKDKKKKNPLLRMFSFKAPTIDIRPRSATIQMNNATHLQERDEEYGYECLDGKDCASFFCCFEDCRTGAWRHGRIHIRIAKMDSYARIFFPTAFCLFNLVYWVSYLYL
# Chain of Gamma-aminobutyric acid receptor subunit alpha-1/alpha-2/beta-2/gamma-2 (P47869 whole entry): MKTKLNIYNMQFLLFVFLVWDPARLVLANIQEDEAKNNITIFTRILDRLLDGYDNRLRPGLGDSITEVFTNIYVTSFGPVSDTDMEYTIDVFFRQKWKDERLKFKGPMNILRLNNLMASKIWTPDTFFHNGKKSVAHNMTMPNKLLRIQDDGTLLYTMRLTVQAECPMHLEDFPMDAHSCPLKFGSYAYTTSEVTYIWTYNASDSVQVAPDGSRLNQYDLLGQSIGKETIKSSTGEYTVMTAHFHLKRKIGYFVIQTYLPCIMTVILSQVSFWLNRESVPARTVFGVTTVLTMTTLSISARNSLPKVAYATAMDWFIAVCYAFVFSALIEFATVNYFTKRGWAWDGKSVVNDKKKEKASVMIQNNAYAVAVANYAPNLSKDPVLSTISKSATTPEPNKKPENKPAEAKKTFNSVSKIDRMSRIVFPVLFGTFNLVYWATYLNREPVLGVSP
# Chain of Substance-P receptor (P25103 whole entry): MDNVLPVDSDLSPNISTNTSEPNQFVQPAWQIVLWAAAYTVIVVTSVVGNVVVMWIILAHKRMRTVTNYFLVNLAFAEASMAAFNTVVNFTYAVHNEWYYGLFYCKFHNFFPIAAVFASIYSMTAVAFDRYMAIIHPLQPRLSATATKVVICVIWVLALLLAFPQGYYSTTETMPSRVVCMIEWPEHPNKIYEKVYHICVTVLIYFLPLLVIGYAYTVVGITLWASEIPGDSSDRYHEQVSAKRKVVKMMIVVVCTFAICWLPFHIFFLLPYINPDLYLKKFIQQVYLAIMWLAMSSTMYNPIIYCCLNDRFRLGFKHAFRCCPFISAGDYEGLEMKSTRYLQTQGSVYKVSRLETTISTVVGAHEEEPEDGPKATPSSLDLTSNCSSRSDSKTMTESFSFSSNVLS
structure (smiles),measurement,setting,value
C[C@]12CC[C@@H]3c4ccc(OC(=O)N(CCCl)CCCl)cc4CC[C@H]3[C@@H]1CC[C@@H]2OP(=O)(O)O [ESTRAMUSTINE PHOSPHATE],AC50,[1],> 30 µM
C[C@]12CCC(=O)C=C1CC[C@H]1[C@@H]3CC[C@](O)(C(=O)CO)[C@@]3(C)C[C@H](O)[C@@]12F [FLUDROCORTISONE],AC50,[2],> 10 µM
same,AC50,Estrogen receptor [3],> 30 µM
same,AC50,Progesterone receptor,> 30 µM
O=c1[nH]cc(F)c(=O)[nH]1 [FLUOROURACIL],AC50,[1],> 30 µM
CCOC(=O)Nc1ccc(NCc2ccc(F)cc2)nc1N [FLUPIRTINE],AC50,Estrogen receptor [3],3 µM
N=C(N)NCC1COc2ccccc2O1 (stereo unspecified) [GUANOXAN],AC50,[1],> 30 µM
CCN(CCO)CCCC(C)Nc1ccnc2cc(Cl)ccc12 (stereo unspecified) [HYDROXYCHLOROQUINE],AC50,[2],> 10 µM
OCCOCCN1CCN(C(c2ccccc2)c2ccc(Cl)cc2)CC1 (stereo unspecified) [HYDROXYZINE],AC50,[2],1.66 µM
same,AC50,Substance-P receptor,> 10 µM
O=C(c1ccccc1)c1ccc2n1CCC2C(=O)O (stereo unspecified) [KETOROLAC],AC50,[2],> 10 µM
Nc1nnc(-c2cccc(Cl)c2Cl)c(N)n1 [LAMOTRIGINE],AC50,[2],> 10 µM
same,AC50,Progesterone receptor,> 30 µM
same,AC50,Substance-P receptor,> 10 µM
N[C@@H](Cc1cc(I)c(Oc2cc(I)c(O)c(I)c2)c(I)c1)C(=O)O [LEVOTHYROXINE],AC50,[4],> 30 µM
O=NN(CCCl)C(=O)NC1CCCCC1 [LOMUSTINE],AC50,[1],> 30 µM
CNC1(C)C2CCC(C2)C1(C)C (stereo unspecified) [MECAMYLAMINE],AC50,[2],> 10 µM
Cc1cc(C)cc(OCC2CNC(=O)O2)c1 (stereo unspecified) [METAXALONE],AC50,[1],> 30 µM
CO[C@@]1(NC(=O)C(C(=O)O)c2ccc(O)cc2)C(=O)N2C(C(=O)O)=C(CSc3nnnn3C)CO[C@@H]21 (stereo partly specified) [MOXALACTAM],AC50,[1],> 30 µM
CS(=O)(=O)Nc1ccc([N+](=O)[O-])cc1Oc1ccccc1 [NIMESULIDE],AC50,[4],> 30 µM
COc1cccc2c1C(=O)c1c(O)c3c(c(O)c1C2=O)C[C@@](O)(C(=O)CO)C[C@@H]3O[C@H]1C[C@H](N)[C@H](O[C@@H]2CCCCO2)[C@H](C)O1 [PIRARUBICIN],AC50,[1],> 30 µM
CC(C)NC[C@H](O)COc1ccc(O)cc1 [PRENALTEROL],AC50,[1],> 30 µM
CCC1(c2ccccc2)C(=O)NCNC1=O [PRIMIDONE],AC50,[2],> 10 µM
CC(=O)SCC(Cc1ccccc1)C(=O)NCC(=O)OCc1ccccc1 (stereo unspecified) [RACECADOTRIL],AC50,[2],> 10 µM
same,AC50,Estrogen receptor [3],> 30 µM
same,AC50,Progesterone receptor,> 30 µM
CCOc1ccccc1OCCN[C@H](C)Cc1ccc(OC)c(S(N)(=O)=O)c1 [TAMSULOSIN],AC50,Progesterone receptor,> 30 µM
C[C@H](Cn1cnc2c(N)ncnc21)OCP(=O)(O)O [TENOFOVIR ANHYDROUS],AC50,Estrogen receptor [3],> 30 µM
CC(C)(CO)c1cc2cc(NC(=O)C3(c4ccc5c(c4)OC(F)(F)O5)CC3)c(F)cc2n1C[C@@H](O)CO [TEZACAFTOR],AC50,Estrogen receptor [5],> 30 µM
same,AC50,Estrogen receptor [6],> 30 µM
same,AC50,[4],> 30 µM
CN1CCC(N(Cc2cccs2)c2ccccc2)CC1 [THENALIDINE],AC50,[1],> 30 µM
CN(C)CCN(Cc1ccccc1)c1ccccn1 [TRIPELENNAMINE],AC50,[2],10.8 µM
same,AC50,Estrogen receptor [3],> 10 µM
same,AC50,[1],> 30 µM
Cc1c(C)c2c(c(C)c1O)CCC(C)(COc1ccc(CC3SC(=O)NC3=O)cc1)O2 (stereo unspecified) [TROGLITAZONE],AC50,[2],12.5 µM
same,AC50,Estrogen receptor [5],> 30 µM
same,AC50,Estrogen receptor [6],> 30 µM
same,AC50,Estrogen receptor [3],> 30 µM
same,AC50,[4],> 30 µM
same,AC50,Progesterone receptor,> 30 µM
